Results from article PMC9653733, “Characterization of a Potent, Selective, and Safe Inhibitor, Ac15(Az8)2, in Reversing Multidrug Resistance Mediated by Breast Cancer Resistance Protein (BCRP/ABCG2)” (International Journal of Molecular Sciences, 2022).
“And” between values parts separate entries of the source, which are not always exact repeats. Equal values may be shown once.

How the values were obtained:
S1M180 cells = assay: Cytotoxicity of anticancer drugs in S1M180 (0.1% DMSO); assay type: cell-based, human
Protocol: In total, 6500 cells of S1M180 or MCF7-MX100 were incubated with various doses of topotecan or DOX and modulators. The final volume in each well of 96-well plates was 200 µL. The plates were then incubated for 5 days at 37 °C. The CellTiter 96 AQueous Assay (Promega) was used to measure cell proliferation. According to the manufacturer’s instructions, MTS (2 mg/mL) and PMS (0.92 mg/mL) were mixed in a ratio of 20:1. An aliquot (10 μL) of the freshly prepared MTS/PMS mixture was added into each well, and the plate was incubated for 2 h at 37 °C. Optical absorbance at 490 nm was then recorded with microplate absorbance reader (Bio-Rad). IC50 values were calculated from the dose-response curves of MTS assays (Prism 4.0).

BCRP (S1M180 cells) = biological target: T1, BCRP (S1M180 cells) (Homo sapiens, UniProt Q9UNQ0, R482G); assay: Drug accumulation assay in S1M180; assay type: cell-based; conditions: 20 µM DOX, 1 h; p < 0.001
T1 construct: endogenous in cells; host or cells: S1M180 (human colon carcinoma, mitoxantrone-selected)
T1 sequence (Q9UNQ0 1-655 R482G): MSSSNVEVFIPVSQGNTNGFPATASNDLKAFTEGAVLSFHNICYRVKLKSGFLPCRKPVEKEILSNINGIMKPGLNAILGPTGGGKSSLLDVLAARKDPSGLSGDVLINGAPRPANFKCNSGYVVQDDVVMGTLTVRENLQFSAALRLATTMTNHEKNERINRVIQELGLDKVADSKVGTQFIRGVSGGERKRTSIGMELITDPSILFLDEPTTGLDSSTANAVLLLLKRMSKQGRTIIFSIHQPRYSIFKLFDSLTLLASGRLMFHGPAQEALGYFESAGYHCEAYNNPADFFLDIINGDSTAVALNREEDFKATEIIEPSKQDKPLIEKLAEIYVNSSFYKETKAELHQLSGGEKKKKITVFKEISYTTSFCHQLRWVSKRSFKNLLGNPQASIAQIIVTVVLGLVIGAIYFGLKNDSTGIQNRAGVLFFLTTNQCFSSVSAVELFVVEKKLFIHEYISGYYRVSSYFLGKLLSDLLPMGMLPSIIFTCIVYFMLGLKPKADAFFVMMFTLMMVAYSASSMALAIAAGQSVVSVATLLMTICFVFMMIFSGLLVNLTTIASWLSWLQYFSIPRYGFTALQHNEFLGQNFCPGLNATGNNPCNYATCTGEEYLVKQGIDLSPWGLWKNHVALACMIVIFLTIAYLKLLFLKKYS
Protocol: Figure 2 Effect of Ac15(Az8)2 on intracellular accumulation of BCRP-substrates in S1 and S1M180 cells. Cells were pre-treated with 0.1% DMSO, 100 nM, or 1000 nM Ac15(Az8)2 and then incubated with BCRP substrates. (A) Topotecan accumulation. (B) DOX accumulation. The intracellular level of drug after treatment was normalized to that of S1 cells after incubating with 0.1% DMSO. Student unpaired two-tailed t-test was conducted as indicated (** p < 0.01, *** p < 0.001). (C) To measure DOX efflux, S1M180 cells were pre-incubated with medium containing 20 μM DOX for 1 h at 37 °C. Cells were then washed and further incubated with or without 1 µM of Ac15(Az8)2. At 0, 5, 10, 30, 60, 120, and 180 min, the cells were harvested to measure the intracellular DOX level. (D) To determine intracellular Ac15(Az8)2 concentration, 1 × 10^7 cells were incubated with 1 µM of Ac15(Az8)2 at 37 °C for 2 h. Cells were then washed with ice-cold PBS. To the cell pellet, acetonitrile was added to lyse the cells, and the supernatant was saved for Ac15(Az8)2 determination using UPLC–MS/MS.
Briefly, 1 × 10^6 cells of S1 and S1M180 cells were pre-incubated with 100 nM or 1000 nM Ac15(Az8)2 for 2 h and followed by 50 µM of topotecan or 20 µM of DOX for 1-h incubation. DMSO at 0.1% was used as a negative control. After incubation, the cells were spun down and washed with cold PBS, pH7.4 for 2 times and lysed with 100 μL of lysis buffer (0.75 M HCl, 0.2% Triton-X100 in isopropanol) with vigorous vortex. The lysate was further incubated at 37 °C for 20 min. After incubation, the lysate was spun down, and 100 μL of supernatant was saved and seeded into a black 96-well microtiter plate. The fluorescence level of DOX was determined by a fluorescence microplate reader (BMG Technologies) using excitation and an emission wavelength pair of 460 nm and 610 nm.

S1 cells = assay: Cytotoxicity of anticancer drugs in parental S1 (0.1% DMSO); assay type: cell-based, human
BCRP (MCF7-MX100 cells) = conditions: concentration reducing IC50 of anticancer drug by half; mean ± S.D.; ref [42]; read-out: EC50 needed for reversing BCRP-mediated topotecan resistance, MCF7-MX100; cited from earlier work
MRP1 (2008/MRP1 cells) = conditions: mean ± S.D.; ref [42]; read-out: EC50 needed for reversing MRP1-mediated DOX resistance, 2008/MRP1; cited from earlier work
L929 = conditions: normal mouse fibroblast cells; mean ± S.D.; ref [42]; read-out: IC50 towards L929; cited from earlier work

SMILES | IC50 (S1M180 cells; Homo sapiens, S1-M1-80, S1M180 + 0.1% DMSO, mean ± S.D., n = 3, read-out: IC50 of DOX) [µM] | RF (Relative Fold), DOX (S1M180 cells; S1M180 + 0.1% DMSO (reference)) | DOX accumulation in S1M180, fold less than parental S1 (BCRP (S1M180 cells)) [fold] | IC50 (S1 cells; Homo sapiens, S1 + 0.1% DMSO, mean ± S.D., n = 3, read-out: IC50 of DOX) [µM] | RF (Relative Fold), DOX: resistance of S1M180 compared to parental S1 (S1 cells; S1 + 0.1% DMSO vs S1M180 + 0.1% DMSO) | EC50 (BCRP (MCF7-MX100 cells)) [µM] | EC50 (MRP1 (2008/MRP1 cells)) [µM] | IC50 (L929)
COc1cccc2c1C(=O)c1c(O)c3c(c(O)c1C2=O)C[C@@](O)(C(=O)CO)C[C@@H]3O[C@H]1C[C@H](N)[C@H](O)[C@H](C)O1 [DOX, doxorubicin] | 13.4 | 1.0 | ~4.6 | 0.1 ± 0.02 | 133.7 |  |  | 
COc1ccc2c3c([nH]c2c1)[C@H](CC(C)C)N1C(=O)[C@H](CCC(=O)OC(C)(C)C)NC(=O)[C@@H]1C3 [Ko143, reference compound] |  |  |  |  |  | […] | 1.95 ± 0.354 | 29 µM and 29.2 µM
